# Results reported in PMC12029898, “Cellular Metabolomics Reveals Differences in the Scope of Liver Protection Between Ammonium-Based Glycyrrhizinate and Magnesium Isoglycyrrhizinate” (Metabolites, 2025).
# Where two headings read alike, the source gives them in different places.
# Experiments:
# LO2 cells = experiment: Hepatocyte protection rate in APAP-induced LO2 cells (MTT); assay type: cell-based, human; details: for liver protection rate: 16 mM APAP; for hepatocyte protection (therapeutic effect): 16 mM APAP, 200, 400 and 600 μM
# Description: Assessment of hepatocyte-protective effects: Cells in the logarithmic growth phase were seeded onto a 96-well plate at a density of 4000 cells per well, followed by incubation at 37 °C in an atmosphere containing 5% CO2. After 24 h of incubation, cells were treated with 16 mM APAP, followed by the addition of MONO, DIAM, and MAGN at three escalating concentrations (200, 400, and 600 μM for each compound). The cell survival rate was quantitatively evaluated using MTT method. The protective efficacy of the compounds was then calculated employing the formula outlined below.(1) Hepatocytes protection rate=AGlycyrrhizinate−AAPAP/Anormal−AAPAP×1
# [1] = Pharmacokinetics after oral gavage in rats (plasma, HPLC); assay type: in vivo, Sprague Dawley rats; details: rat
# Excerpt: Nine male Sprague Dawley rats, each weighing approximately 250 g ± 25 g, were meticulously selected as the experimental subjects (sourced from Beijing SPF Biotechnology Co., Ltd., (Beijing, China) SPF grade, licensed under SCXK (Jing) 2019-0010). The experimental protocol was approved by the Institutional Animal Care and Use Committee of Hebei Medical University and conformed to the Guide for Care and Use of Laboratory Animals (approval NO. 2023040). Prior to and throughout the experimental period, the rats were provided with unrestricted access to standard rodent chow and water. The housing facilities for these animals adhered strictly to the standards outlined by the International Association for the Evaluation and Certification of Laboratory Animal Care, ensuring optimal conditions for the animals’ wellbeing. The experimental feeding environment was maintained at a temperature of 22–24 °C, with a relative humidity of 50 ± 5%, and a 12-h light/dark cycle to mimic natural diurnal rhythms. The rats were randomly allocated into three distinct groups, with an equal distribution of three rats per group. MONO, DIAM, and MAGN were administered orally at a dose of 20 mg/kg. The amount administered was calculated as the contents of glycyrrhizinate or magnesium isoglycyrrhizinate. Each compound was dissolved in 0.5% carboxymethylcellulose sodium (CMC-Na) solution and delivered immediately to rats via gastric gavage. Blood samples of 0.2 mL were obtained at various time points post-administration (0.5, 1, 2, 4, 8, 12, 24, and 48 h) and centrifuged at 1500× g for 10 min at 4 °C, allowing for the separation of plasma, which was collected and stored at −20 °C for subsequent analysis.
# Fifty microliters (50 μL) of plasma was obtained and spiked with 10 μL of dipyridamole solution as an internal standard. Subsequently, 100 μL of acetonitrile was added to precipitate the proteins, followed by vortex mixing. The mixture was centrifuged at 6000× g for 10 min at 4 °C. The resulting precipitate was discarded, and the supernatant was evaporated to dryness under a nitrogen stream at 60 °C. The residual precipitate was redissolved in 200 μL of mobile phase, vortexed for 5 min, and sonicated for 30 s. Following this, the solution was centrifuged again at 6000× g for 10 min at 4 °C. Then, 10 μL of the supernatant was injected and the chromatogram was recorded for analysis.
# HPLC was employed using the Agilent 1200 series system (Agilent Technologies, Wilmington, DE, USA) with Agilent Chemstation LC B.04.03 Software. The separation was on a Venusil MP C18(2) chromatographic column (150 × 4.6 mm, 5 μm, Agela Technologies, Tianjin, China) based on the United States Pharmacopeia with adjustments performed. Isocratic elution with a mixture of 40 volumes of acetonitrile and 60 volumes of water (containing 0.5% acetic acid) was used. The flow rate and temperature were 1.0 mL/min and 40 °C, respectively. A volume of 10 μL of the sample was injected under 254 nm for analyses and with three repetitions for each test (n = 3). All the pharmacokinetic data were calculated by Drug and Statistics (DAS) 2.0 software (Mathematical Pharmacology Professional Committee of China, Shanghai, China) and presented as mean ± SD. The main parameters such as the area under the curve (AUC), the maximum plasma concentration (Cmax), the time to Cmax (Tmax), and elimination half-life (t1/2) were tabulated.
"half-life ([1]; male, Sprague Dawley, po, 20 mg/kg, n = 3)","AUC(0-t) ([1]; male, Sprague Dawley, po, 20 mg/kg, n = 3, read-out: AUC0-t)","Cmax ([1]; male, Sprague Dawley, po, 20 mg/kg, n = 3, read-out: Cmax)","Tmax ([1]; male, Sprague Dawley, po, 20 mg/kg, n = 3, read-out: Tmax)",Compound,liver protection rate (LO2 cells; 400 μM),liver protection rate (LO2 cells; 600 μM),hepatocyte protection (therapeutic effect) (LO2 cells),"Tmax ([1]; oral 20 mg/kg, n = 3)","AUC(0-t) ([1]; oral 20 mg/kg, n = 3)","Cmax ([1]; oral 20 mg/kg, n = 3)","t1/2 ([1]; oral 20 mg/kg, n = 3)"
23.7 ± 2.44 h,552 ± 120 µg·h/mL,23200 ± 4180 ng/mL,9.66 h,"CC1(C)[C@@H](O[C@H]2O[C@H](C(=O)O)[C@@H](O)[C@H](O)[C@H]2O[C@@H]2O[C@H](C(=O)O)[C@@H](O)[C@H](O)[C@H]2O)CC[C@]2(C)[C@H]3C(=O)C=C4[C@H]5C[C@@](C)(C(=O)O)CC[C@]5(C)CC[C@@]4(C)[C@]3(C)CC[C@@H]12 [MAGN, magnesium isoglycyrrhizinate]","comparable liver protection rates, which were statistically indistinguishable and surpassed that of MONO",superior protective rate compared to DIAM,concentration-dependent therapeutic effects,9.33 ± 2.31 h,,,
,,,,"CC1(C)[C@@H](O[C@H]2O[C@H](C(=O)O)[C@@H](O)[C@H](O)[C@H]2O[C@@H]2O[C@H](C(=O)O)[C@@H](O)[C@H](O)[C@H]2O)CC[C@]2(C)[C@H]3C(=O)C=C4[C@@H]5C[C@@](C)(C(=O)O)CC[C@]5(C)CC[C@@]4(C)[C@]3(C)CC[C@@H]12 [DIAM, diammonium glycyrrhizinate]","comparable liver protection rates, which were statistically indistinguishable and surpassed that of MONO",,concentration-dependent therapeutic effects,6 ± 0 h,358.04 ± 56.36 µg·h/mL,18860 ± 2030 ng/mL,11.57 ± 1.29 h
